According to PMC6337631, “Effective Tetradentate Compound Complexes against Leishmania spp. that Act on Critical Enzymatic Pathways of These Parasites” (Molecules, 2018):

Assays:
[1] = system: Leishmania braziliensis promastigote forms; assay: Promastigote test (extracellular forms), L. braziliensis; type: cell-based; settings: Leishmania braziliensis; 72 h; 100 µM to 1 µM; mean ± SD
Method: Promastigote forms of three different Leishmania spp., L. donovani (MHOM/PE/84/LC26), L. infantum (MCAN/ES/2001/UCM-10) and L. braziliensis (MHOM/BR/1975/M2904), were cultured in vitro in Medium Trypanosomes Liquid (MTL) supplemented with 10% inactivated foetal calf serum (FCS) in an air atmosphere at 28 °C, in Roux flasks (Corning, Manassas, VA, USA) with a surface area of 75 cm^2, according to [33].
The compounds and the reference drug Glu were dissolved in DMSO (Panreac, Barcelona, Spain) and tested from 100 µM to 1 µM with 0.1% (v/v) DMSO final concentration in plates. Therefore, controls were prepared including 0.1% (v/v) of this component, as previously described.
Promastigote forms were collected in the exponential growth phase and seeded at 1 × 10^5 parasites/mL in 24-well microplates (Nunc, Naperville, IL, USA), after adding each compound at concentrations from 100 µM to 1 µM and cultured in 500 μL/well volumes at 28 °C. After 72 h incubation, the leishmanicidal activity was assessed using a Neubauer haemocytometric chamber in comparison with the control cultures. […] Each drug concentration was tested in triplicate in four separate determinations.

[2] = system: L. donovani promastigotes; assay: Metabolite excretion by 1H-NMR, L. donovani; type: cell-based, Leishmania donovani; settings: IC25 concentration, 72 h, vs untreated
Method: Trypanosomatids catabolizes glucose at a high rate, excreting into the medium partly oxidized end products such as acetate, succinate, L-alanine or L-lactate.
Cultures of L. donovani, L. infantum and L. braziliensis promastigotes were seeded in culture flaks at 5 × 10^5 cells/mL, and after the addition of the compounds at IC25 concentrations at 28 °C. Control cultures were also included. After 72 h of incubation, parasites were centrifuged at 400 × g for 10 min, and supernatants were collected in order to determine the excreted metabolites by ^1H-NMR. Chemical shifts were expressed in parts per million (ppm) using sodium 2,2-dimethyl-2-silapentane-5-sulphonate as the reference signal. The One-dimensional ^1H-NMR spectra were acquired with a VARIAN DIRECT DRIVE 400 MHz Bruker spectrometer (Rheinstetten, Germany) with an AutoX probe using D2O as solvent. The chemical shifts used to identify the respective metabolites were consistent with those described previously by some of the authors. The spectral region of 1.0–5.5 ppm was bucketed into a frequency window of 0.1 ppm. The peak (2.6 ppm) corresponding to DMSO was removed before binning, and the regions corresponding to water (4.5–5.5 ppm) and glucose (3.4–3.8 ppm) were excluded during binning to avoid artefacts due to pre-saturation. The aromatic region was excluded because the signal to noise ratio in this region was poorer in comparison to the aliphatic region. The resulting integrals were normalised to the working region (1.0–3.4) ppm of the spectrum to correct for inter-sample differences in dilution. The binning and normalisations were achieved using Mestrenova 9.0 software (Santiago de Compostela, Spain). The matrix obtained in Mestrenova was imported into Microsoft Excel (Redmond, WA, USA) for further data analyses.

[3] = target: T1, human CuZn-SOD (Homo sapiens, UniProt P00441); assay: SOD inhibition assay, human CuZn-SOD; type: biochemical; settings: assayed 100 µM to 0.1 µM; non-linear regression
T1 construct: purchased Sigma Chemical Co. (St. Louis, MO, USA)
Method: The previous extraordinary results prompted us to evaluate the inhibitory effect of 3, 5–8 and 10 on the SOD activity. […]
Parasite cells were collected in the exponential growth phase by centrifugation (400g for 10 min). The pellet obtained after centrifugation was lysated by sonication, processed according to [38] and obtained the homogenate fraction which contained the parasite Fe-SOD. The protein content was quantified using the Sigma Bradford test, which uses BSA as a standard (no trace ability was certified for the BSA standard). Superoxide dismutase activities were determined using a method previously described, which measures the reduction in nitrobluetetrazolium (NBT) by superoxide ions. Human CuZn-SOD. Substrates used in these assays were obtained from Sigma Chemical Co. (St. Louis, MO, USA). Resulting data were analysed using the Newman−Keuls test.

T1 sequence (P00441 whole entry): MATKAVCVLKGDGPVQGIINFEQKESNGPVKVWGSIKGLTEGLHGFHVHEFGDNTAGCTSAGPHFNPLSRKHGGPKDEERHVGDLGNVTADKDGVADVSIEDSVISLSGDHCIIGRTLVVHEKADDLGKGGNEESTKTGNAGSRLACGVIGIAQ

Structure (SMILES): CN(C)c1ccnc(CN2CCC[C@H]2[C@@H]2CCCN2Cc2cc(N(C)C)ccn2)c1 [Compound 7]
- IC50 [1]: 11.7 ± 0.8 µM
- Excretion variation ACETATE, L. donovani [2]: > 50%
- Excretion variation L-ALANINE, L. donovani [2]: 64%
- Excretion variation SUCCINATE, L. donovani [2]: > 50%
- IC50 [3]: > 500 µM
